PubChem BioAssay (NCI)
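Dose response: 5 concentrations. Exposure: 48 h. Format: 96-well plates. Endpoint: linear interpolation; highest concentration if not reached. TGI: concentration producing complete growth inhibition.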

Assays:
Assay in all cases: DTP human tumour cell line panel, 48 h
[1] = tested on: TK-10 renal
[2] = tested on: NCI/ADR-RES ovarian
[3] = tested on: MOLT-4 leukemia
[4] = tested on: MDA-N
[5] = tested on: SNB-75 CNS
[6] = tested on: A549 NSCLC
[7] = tested on: MCF7 breast
[8] = tested on: UACC-257 melanoma
[9] = tested on: HOP-92 NSCLC
[10] = tested on: SF-295 CNS
[11] = tested on: U251 CNS
[12] = tested on: NCI-H522 lung
[13] = tested on: OVCAR-3 ovarian
[14] = tested on: MDA-MB-435
[15] = tested on: A498 renal
[16] = tested on: SK-MEL-5 melanoma
[17] = tested on: UO-31 renal
[18] = tested on: EKVX NSCLC
[19] = tested on: CAKI-1 renal
[20] = tested on: IGROV1 ovarian
[21] = tested on: HOP-62 NSCLC
[22] = tested on: HS 578T breast
[23] = tested on: M14 melanoma
[24] = tested on: RXF 393 renal
[25] = tested on: SK-OV-3 ovarian
[26] = tested on: OVCAR-8 ovarian
[27] = tested on: SK-MEL-2 melanoma
[28] = tested on: SK-MEL-28 melanoma
[29] = tested on: HT29 colon
[30] = tested on: SF-268 CNS
[31] = tested on: SNB-19 CNS
[32] = tested on: OVCAR-5 ovarian
[33] = tested on: NCI-H460 lung
[34] = tested on: HCC-2998 colon
[35] = tested on: SW-620 colon
[36] = tested on: DU-145 prostate
[37] = tested on: BT-549 breast
[38] = tested on: KM12 colon
[39] = tested on: K-562 leukemia
[40] = tested on: HCT-15 colon
[41] = tested on: MDA-MB-231 breast
[42] = tested on: UACC-62 melanoma
[43] = tested on: ACHN renal
[44] = tested on: COLO 205 colon
[45] = tested on: NCI-H23 lung
[46] = tested on: MALME-3M melanoma
[47] = tested on: RPMI-8226 leukemia
[48] = tested on: PC-3 prostate
[49] = tested on: 786-0 renal
[50] = tested on: OVCAR-4 ovarian
[51] = tested on: HCT-116 colon
[52] = tested on: SF-539 CNS
[53] = tested on: NCI-H226 lung
[54] = tested on: SR leukemia
[55] = tested on: LOX IMVI melanoma
[56] = tested on: CCRF-CEM leukemia
[57] = tested on: SN12C renal
[58] = tested on: HL-60(TB) leukemia

## C/C=C1/CC(C(=O)OC)N(C(=O)OCc2ccccc2)C1=S (stereo not drawn)
[1]
  TGI: > 100 µM
[2]
  TGI: > 100 µM
[3]
  TGI: > 100 µM
[4]
  TGI: > 100 µM
[5]
  TGI: > 100 µM
[6]
  TGI: > 100 µM
[7]
  TGI: > 100 µM
[8]
  TGI: > 100 µM
[9]
  TGI: > 100 µM
[10]
  TGI: > 100 µM
[11]
  TGI: > 100 µM
[12]
  TGI: > 100 µM
[13]
  TGI: > 100 µM
[14]
  TGI: > 100 µM
[15]
  TGI: > 100 µM
[16]
  TGI: > 100 µM
[17]
  TGI: > 100 µM
[18]
  TGI: > 100 µM
[19]
  TGI: > 100 µM
[20]
  TGI: > 100 µM
[21]
  TGI: > 100 µM
[22]
  TGI: > 100 µM
[23]
  TGI: > 100 µM
[24]
  TGI: > 100 µM
[25]
  TGI: > 100 µM
[26]
  TGI: > 100 µM
[27]
  TGI: > 100 µM
[28]
  TGI: > 100 µM
[29]
  TGI: > 100 µM
[30]
  TGI: > 100 µM
[31]
  TGI: > 100 µM
[32]
  TGI: > 100 µM
[33]
  TGI: 38.8 µM
[34]
  TGI: > 100 µM
[35]
  TGI: > 100 µM
[36]
  TGI: > 100 µM
[37]
  TGI: > 100 µM
[38]
  TGI: > 100 µM
[39]
  TGI: > 100 µM
[40]
  TGI: > 100 µM
[41]
  TGI: > 100 µM
[42]
  TGI: > 100 µM
[43]
  TGI: > 100 µM
[44]
  TGI: > 100 µM
[45]
  TGI: > 100 µM
[46]
  TGI: > 100 µM
[47]
  TGI: > 100 µM
[48]
  TGI: > 100 µM
[49]
  TGI: > 100 µM
[50]
  TGI: > 100 µM
[51]
  TGI: > 100 µM

## CC(=O)OCC1OC(n2c3c(c(-c4ccc(C)cc4)c(C#N)c2=S)C(=O)CC(C)(C)C3)C(OC(C)=O)C(OC(C)=O)C1OC(C)=O (stereo not drawn)
[1]
  TGI: > 100 µM
[2]
  TGI: > 100 µM
[3]
  TGI: > 100 µM
[4]
  TGI: 41.5 µM
[5]
  TGI: 82.5 µM
[6]
  TGI: > 100 µM
[7]
  TGI: > 100 µM
[8]
  TGI: 38.3 µM
[9]
  TGI: > 100 µM
[10]
  TGI: 89 µM
[11]
  TGI: > 100 µM
[12]
  TGI: > 100 µM
[13]
  TGI: > 100 µM
[14]
  TGI: > 100 µM
[15]
  TGI: > 100 µM
[16]
  TGI: > 100 µM
[52]
  TGI: 67.2 µM
[17]
  TGI: > 100 µM
[19]
  TGI: > 100 µM
[20]
  TGI: > 100 µM
[21]
  TGI: > 100 µM
[53]
  TGI: 61.8 µM
[54]
  TGI: > 100 µM
[22]
  TGI: > 100 µM
[23]
  TGI: > 100 µM
[24]
  TGI: 92.2 µM
[26]
  TGI: > 100 µM
[55]
  TGI: 26.2 µM
[56]
  TGI: > 100 µM
[28]
  TGI: 66.3 µM
[29]
  TGI: > 100 µM
[30]
  TGI: 94.9 µM
[31]
  TGI: > 100 µM
[32]
  TGI: > 100 µM
[33]
  TGI: > 100 µM
[35]
  TGI: > 100 µM
[36]
  TGI: > 100 µM
[37]
  TGI: 38.1 µM
[38]
  TGI: > 100 µM
[39]
  TGI: 95.3 µM
[41]
  TGI: 62.1 µM
[57]
  TGI: 42.7 µM
[42]
  TGI: 44.4 µM
[43]
  TGI: > 100 µM
[44]
  TGI: > 100 µM
[45]
  TGI: > 100 µM
[46]
  TGI: > 100 µM
[47]
  TGI: > 100 µM
[48]
  TGI: 60 µM
[58]
  TGI: > 100 µM
[49]
  TGI: > 100 µM
[51]
  TGI: > 100 µM
